Measured values reported in patent publication US7919525B2, “Radiation protection by gamma-tocotrienol” (priority 2003, dated 2011).

Columns and labels:
Assay type in all cases: in vivo
CD2F1 male mice [1] = test: 30-day survival of mice given succinate ester orally before Cobalt-60 irradiation; conditions: 9.5 Gy Cobalt-60, 0.6 Gy/min; oral 0.1 ml of 200 unit/ml 20-24 hours before irradiation
Experimental: (§1) After radiation, mice were returned to their original cages with free access to food and water. Mice were weighed and monitored for survivors everyday for 30 days. Percentages of survivors at the end of 30 days are used as a measure of the efficacy of γ-tocotrienol in protecting from radiation damage.
0.5 g TS (Sigma, 1210 units/g) was sonicated with 2.85 ml PEG-400 (polyethylene glycol-400) and 0.15 ml of vital-E-placebo, a solubilizing agent (Schering-Plough). The final concentration of TS in the prepared solution is 200 units/ml. At a dose of 800 unit/kg, 1 ml of the prepared solution as described above is sufficient for 8 mice. Vehicle for injection into control mice was prepared exactly as for TS except that 0.5 ml of olive oil was used instead of TS.
Each animal was orally administered 0.1 ml of TS solution (200 unit/ml) or vehicle by using feeding needles with a blobbed head. All administrations were done 20-24 hours before irradiation.
Animals were then placed in well-ventilated Lucite boxes (eight animals in a compartmentalized box) and irradiated in a Cobalt-60 facility at a radiation dose rate of 0.6 Gy/min for total radiation doses of 9, 9.5, and 10 Gy. The radiation doses 9.5 and 10 Gy used are lethal doses. […]
The efficacy of α-tocopherol succinate in protecting from radiation damage is monitored as described in Example 4. […]

CD2F1 male mice [2] = test: 30-day survival of mice injected s.c. before lethal Cobalt-60 irradiation; conditions: for protective efficacy at higher radiation dose (in words): 11 Gy; for survival at 30 days after irradiation: s.c. injection 20-24 hours before irradiation
Experimental: CD2F1 male mice, 6-8 weeks old (approximately 25 g), procured from Jackson Labs were used throughout this study and were kept in rooms maintained at 21±0.5° C. Animals on arrival were maintained in quarantine for 10 days during which time serological testing was done for contamination by pathogens. All animals were provided with pellet diet and water ad lib.
A preparation of γ-tocotrienol in a final volume of 1 ml was made by mixing 0.11 ml of γ-tocotrienol with 0.85 ml PEG-400 (polyethylene glycol-400) and 0.05 ml of vital-E-placebo, a solubilizing agent (Schering-Plough). 1 ml of the preparation is sufficient for 8 mice. Final concentration of γ-tocotrienol is 100 mg/ml. Vehicle for injection into control animals was prepared exactly as for γ-tocotrienol except that 0.11 ml of olive oil was used instead of γ-tocotrienol.
(§2) Each animal was injected subcutaneously (at the nape of the neck) with 0.1 ml of either γ-tocotrienol or vehicle preparation. Injections were done 20-24 hours before irradiation.
(§3) Animals were placed in well-ventilated Lucite boxes (8 animals in a compartmentalized box) and irradiated in a Cobalt-60 facility at a radiation dose rate of 0.6 Gy/min for a total radiation dose of 10.5 and 11 Gy. The radiation dose used is a super lethal dose. The LD50/30 radiation dose for this strain of mice is 8.9 Gy with the vehicle alone. The radiation dose and dose rate were the same that had been used for α-tocopherol studies.
as §1

CD2F1 male mice [3] = test: Body weight of mice after irradiation at 10.5 Gy; conditions: 0.6 Gy per minute, s.c.
Experimental: as §2, §3, §1
Among the different treatment groups, the untreated mice (Untr, Irrad) and the mice treated with vehicle (Vehicle) started to loose weight again from around day 9 and died by day 15.

[4] = experiment 1, 10.5 Gy Cobalt-60, 0.6 Gy/min, 8 mice
[5] = experiment 2, 10.5 Gy Cobalt-60, 0.6 Gy/min, 8 mice

Cc1c(C)c2c(c(C)c1OC(=O)CCC(=O)O)CC[C@@](C)(CCC[C@H](C)CCC[C@H](C)CCCC(C)C)O2 [α-tocopherol succinate]
survival at 30 days after irradiation (CD2F1 male mice [1]): 60%

Cc1c(C)c2c(c(C)c1O)CC[C@@](C)(CCC[C@H](C)CCC[C@H](C)CCCC(C)C)O2 [α-tocopherol, reference compound]
protection less than that of γ-tocotrienol (CD2F1 male mice [2]; 10.5 Gy): 25% | protective efficacy at higher radiation dose (in words) (CD2F1 male mice [2]): not effective | survival at 30 days after irradiation (CD2F1 male mice [2]; 11 Gy Cobalt-60, 0.6 Gy/min): no survivors | survival at 30 days after irradiation (CD2F1 male mice [2]; [4]): 75% | survival at 30 days after irradiation (CD2F1 male mice [2]; [5]): 50%

γ-tocotrienol
body weight course after irradiation (in words) (CD2F1 male mice [3]): continued to gain weight and did not die from the irradiation | protection higher than with α-tocopherol (CD2F1 male mice [2]; 10.5 Gy, both experiments): 25% | survival after irradiation, both experiments together (CD2F1 male mice [2]; 10.5 Gy, given before irradiation): 75%-100 | protective efficacy at higher radiation dose (in words) (CD2F1 male mice [2]): better radioprotectant than α-tocopherol | survival at 30 days after irradiation (CD2F1 male mice [2]; 11 Gy Cobalt-60, 0.6 Gy/min): 40% | survival at 30 days after irradiation (CD2F1 male mice [2]; [4]): 100% | survival at 30 days after irradiation (CD2F1 male mice [2]; [5]): 75%
